Reference: US5716994A, “Antitumor and antileukaemic substances, their preparation and pharmaceutical compositions containing them” (Rhone-Poulenc Rorer S.A., priority 1994, dated 1998)
Where two headings read alike, the source gives them in different places.

How the values were obtained:
[1] = test system: Tubulin, derived from pig brain; details: for effect on the polymerization of tubulin (in words): increase in the latent period, decrease in the rate of polymerization, lower turbidity in the stationary state; for IC50: read-out: concentration which inhibits by 50% the polymerization of tubulin, tubulin 8.5 μM, 37° C., 30 minutes, product 0.8 to 16 μM
Text: The assembly of tubulin into microtubules results in an increase in the turbidity observed at 350 nm with the aid of spectrophotometer.

[2] = test system: murine leukaemia cell lines P388; details: p388 leukaemia cells
resistant lines P388/DOX = details: p388 leukaemia cells

Structure (SMILES) | effect on the polymerization of tubulin (in words) [1] | IC50 [1] [nM] | IC50 ([1]; listed as 3-(3-hydroxy-4-methoxybenzyl)-7-methylene-1-vinyl-2,3,3a,4,7,7a-hexahydroinden-4) [nM] | cytotoxicity [2] | cytotoxicity (resistant lines P388/DOX)
C=CC1CC(Cc2ccc(OC)c(O)c2)C2C(=O)C=CC(=C)C12 (stereo not drawn) [formula (I), 3-(3-hydroxy-4-methoxybenzyl)-7-methylene-1-vinyl-2,3,3a,4,7,7a-hexahydroinden-4-one] | inhibition of the polymerization of tubulin | < 5 | < 1 |  | 
C=CC1CC(Cc2ccc(OC)c(O)c2)c2c(O)ccc(C)c21 (stereo not drawn) [formula (II), 3-(3-hydroxy-4-methoxybenzyl)-4-hydroxy-7-methyl-1-vinylindan] | inhibition of the polymerization of tubulin |  |  | less than 1 μg/cm^3 | less than 1 μg/cm^3
